# Measurements as given in patent US20200179312A1, “ANALOGUES OF CYSTEAMINE AS THERAPEUTIC AGENTS FOR CYSTIC FIBROSIS” (I.E.R.F.C. EUROPEAN INSTITUTE FOR CYSTIC FIBROSIS RESEARCH, priority 2018, published 2020).
# Tests used:
# [1] = test system: BECN1, SQSTM1/p62, (phospho)p42/44 MAPK; assay: Immunoblot of autophagy and inflammation markers in CFBE cells; type: cell-based; conditions: 0.1 μM
# Experimental: Cell lines experiments. CFBE41l- and 16HBE14o-cells were cultured in Minimum Essential Medium (MEM) with Earle's salt, 200 mM L-Glutamine, 10% FBS and penicillin/streptomycin. […]
# (§1) The proteins of cell lines lysates or lung or small intestine homogenates, obtained from treated and untreated cells or mice, were quantified by a Bio-Rad protein assay to ensure equal protein loading before immunoblot analysis. Fifty micrograms of proteins were loaded in each lane. Antibodies against SQSTM1, (Sigma Aldrich,P0067) 1:1000, BECN1 (Abcam, ab58878), 1:1000, CFTR clone CF3 (Abcam, ab2784) 1:1000 or anti-CFTR antibody 660 1:1000, Phospho-p44/42 MAPK (Erk1/2) (Thr202/Tyr204) (Cell Signaling Technology, #91101) 1:1000, TG2 (CUB7402, NEOMARKER) 1:1000 were used. Normalization was performed by probing the membrane with anti-β-actin (Cell Signaling, #4970) 1:1000 or anti-α-tubulin (Cell Signaling Technology, 2148) 1:1000.
# CFTR = CFTR (Homo sapiens, UniProt P13569, DEL508-508); assay: Immunoblot detection of CFTR in CFBE cells; type: cell-based; design: expressed in transfected cells; host or cells: CFBE41o- cells
# Sequence of CFTR (P13569 with tags, fused parts or gaps DEL508-508): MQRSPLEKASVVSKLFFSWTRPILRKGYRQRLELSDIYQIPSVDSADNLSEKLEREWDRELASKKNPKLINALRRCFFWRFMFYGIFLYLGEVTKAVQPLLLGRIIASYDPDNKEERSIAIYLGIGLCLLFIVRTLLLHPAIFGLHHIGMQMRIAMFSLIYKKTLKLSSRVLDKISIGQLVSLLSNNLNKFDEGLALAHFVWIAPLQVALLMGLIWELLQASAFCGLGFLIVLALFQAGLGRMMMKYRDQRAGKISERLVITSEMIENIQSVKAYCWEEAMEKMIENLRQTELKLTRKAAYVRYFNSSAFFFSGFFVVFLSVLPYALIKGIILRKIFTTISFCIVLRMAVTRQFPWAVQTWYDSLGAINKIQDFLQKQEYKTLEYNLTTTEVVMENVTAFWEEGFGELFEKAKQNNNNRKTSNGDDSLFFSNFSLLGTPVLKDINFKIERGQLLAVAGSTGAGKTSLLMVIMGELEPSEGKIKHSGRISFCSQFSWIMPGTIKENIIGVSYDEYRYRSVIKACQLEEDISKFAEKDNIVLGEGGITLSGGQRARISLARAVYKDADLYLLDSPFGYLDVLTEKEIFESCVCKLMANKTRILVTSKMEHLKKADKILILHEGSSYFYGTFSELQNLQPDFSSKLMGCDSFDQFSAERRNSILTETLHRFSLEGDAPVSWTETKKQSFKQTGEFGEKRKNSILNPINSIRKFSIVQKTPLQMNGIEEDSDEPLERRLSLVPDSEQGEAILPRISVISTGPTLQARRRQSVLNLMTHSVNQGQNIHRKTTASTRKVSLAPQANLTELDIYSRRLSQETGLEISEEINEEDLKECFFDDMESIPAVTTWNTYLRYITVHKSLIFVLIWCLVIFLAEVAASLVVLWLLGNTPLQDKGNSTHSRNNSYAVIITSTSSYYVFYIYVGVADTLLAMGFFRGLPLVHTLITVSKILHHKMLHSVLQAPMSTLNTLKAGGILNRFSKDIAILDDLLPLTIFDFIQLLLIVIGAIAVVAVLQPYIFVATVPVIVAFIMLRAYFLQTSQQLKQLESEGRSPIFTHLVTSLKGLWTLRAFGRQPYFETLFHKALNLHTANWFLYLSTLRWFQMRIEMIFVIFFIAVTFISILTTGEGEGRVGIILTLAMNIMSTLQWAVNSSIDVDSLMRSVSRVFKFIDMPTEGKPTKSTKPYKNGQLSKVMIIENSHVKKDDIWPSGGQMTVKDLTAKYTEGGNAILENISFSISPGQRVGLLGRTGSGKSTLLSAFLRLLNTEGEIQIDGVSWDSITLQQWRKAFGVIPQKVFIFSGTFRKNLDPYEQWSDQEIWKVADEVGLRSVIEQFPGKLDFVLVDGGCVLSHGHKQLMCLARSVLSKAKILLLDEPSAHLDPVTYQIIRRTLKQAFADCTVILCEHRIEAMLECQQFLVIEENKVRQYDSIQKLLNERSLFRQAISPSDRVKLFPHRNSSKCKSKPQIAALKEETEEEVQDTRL
# Experimental: Cell lines experiments. CFBE41l- and 16HBE14o-cells were cultured in Minimum Essential Medium (MEM) with Earle's salt, 200 mM L-Glutamine, 10% FBS and penicillin/streptomycin. CFBE41o-cells were transfected with AF508-CFTR at 37° C. and incubated for 18 h with cysteamine (250 μM) or different concentration of IE1.
# as §1
structure (smiles),measurement,setting,value
"NCCCS [IE1, 3-aminopropane-1-thiol]",BECN1 level,[1],able to restore BECN1
same,Inflammation biomarkers (phospho)p42/44 MAPK,[1],decrease
same,p62 levels,[1],reduce p62 levels
same,Effect on (phospho)p42/44 MAPK after 48 h in presence of EGCG,"[1]; 48 h, EGCG",maintained
same,Effect on BECN1 and p62 after 48 h with EGCG addition,"[1]; 48 h, EGCG addition",preserved
same,Effect on (phospho)p42/44 MAPK after 48 h,[1]; after 48 h,completely lost
same,Effect on BECN1 and p62 after 48 h,[1]; after 48 h,disappears
same,PM-resident CFTR protein,CFTR; 0.1 μM,a sizeable fraction of the channel resided at the PM
same,PM-resident CFTR protein after washout,"CFTR; 0.1 μM, 24 h of washout",maintained
same,PM-resident CFTR protein after washout,CFTR; 48 h of washout,decreases
same,PM-resident CFTR protein after washout with EGCG added,"CFTR; 48 h of washout, EGCG added",completely maintained
